Source: patent publication US11834432B2, “Substituted amino six-membered nitric heterocyclic ring compound and preparation and use thereof” (SHANGHAI INSTITUTE OF MATERIA MEDICA, CHINESE ACADEMY OF …, priority 2016, dated 2023)
pIC50: −log10 of the molar value.

Experiments:
[1] = tested on: human gastric cancer SNU-16 subcutaneously transplanted tumor; experiment: Growth of subcutaneously transplanted tumor in human gastric cancer SNU-16 nude mice; assay type: in vivo
Description: The human gastric cancer SNU-16 cell strain was preserved in our laboratory.
S10 groups (30 mg/kg and 10 mg/kg) were orally administered once a day for 21 days; AZD4547 group (10 mg/kg) was administered orally once a day for 21 days; solvent control group was given the same amount of water for injection.

[2] = tested on: human gastric cancer SNU-16 subcutaneously transplanted tumor; experiment: as above; assay type: in vivo; remark: listed apart in the source
[3] = tested on: human lung cancer NCI-H1581 subcutaneously transplanted tumor; experiment: Growth of subcutaneously transplanted tumor in human lung cancer NCI-H1581 nude mice
Description: The cell strain was inoculated in the right axilla of the nude mice, and the amount of cells inoculated was 5×10^6/mouse to form transplanted tumor, which was directly inoculated and used.
The tumor tissue in the prosperous growth period was cut into 1.5 mm^3, and inoculated subcutaneously in the right axilla of the nude mice under aseptic conditions. The diameter of the transplanted tumor in the nude mice was measured with a vernier caliper, and the animals were randomly grouped when the average volume of tumors was about 150-160 mm^3. […] The solvent control group was given an equal amount of water for injection. The diameter of the transplanted tumor was measured twice a week during the entire experiment, and the body weight of the mice was also weighed. The calculation formula of tumor volume (TV) is: TV=1/2×a×b^2, where a and b respectively represent the length and width of the tumor. The relative tumor volume (RTV) was calculated based on the measured results and the formula was: RTV=Vt/V0, where V0 is the tumor volume measured at grouping and dosing (d0), and Vt is the tumor volume at each measurement.

[4] = biological target: FGFR1 kinase domain recombinant protein (Homo sapiens (Human), UniProt P11362); experiment: Inhibition of receptor tyrosine kinase FGFR1 activity (ELISA); assay type: biochemical; conditions: for inhibition at 0.1 µM: 1 h, read-out: Inhibition ratio (%) @ 0.1 μM
Chain of FGFR1 kinase domain recombinant protein (P11362 478-767): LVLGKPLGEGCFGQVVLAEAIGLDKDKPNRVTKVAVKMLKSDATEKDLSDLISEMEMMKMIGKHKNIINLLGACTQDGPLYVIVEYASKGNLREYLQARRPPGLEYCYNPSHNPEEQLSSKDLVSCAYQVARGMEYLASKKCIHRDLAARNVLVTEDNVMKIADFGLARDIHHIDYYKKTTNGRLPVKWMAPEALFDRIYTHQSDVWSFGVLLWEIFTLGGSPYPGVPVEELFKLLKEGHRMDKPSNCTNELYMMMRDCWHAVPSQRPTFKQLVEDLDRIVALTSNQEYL
Description: 1. Preliminary Evaluation Inhibition on Receptor Tyrosine Kinase FGFR1 Activity of Compound
1. […] The liquid from the well was discarded. The plate was washed for three times with T-PBS (0.1% Tween-20 in potassium-free PBS, 200 μL/well), 5 minutes for each time. The elisa plate was dried in 37° C. dryer for 1-2 hours.
2. 49 μL of ATP solution diluted in reaction buffer (50 mM HEPES pH 7.4, 50 mM MgCl2, 0.5 mM MnCl2, 0.2 mM Na3VO4, 1 mM DTT) was added into each well, and 1 μL of the test compound was added to each well, and then 50 μL of FGFR1 kinase domain recombinant protein diluted in reaction buffer was added to initiate the reaction, and two control wells without ATP were required for each experiment. The reaction was performed on a Shaker (100 rpm) at 37° C. for 1 hour. The liquid from the well was discarded, and the plate was washed with T-PBS for three times.
3. The antibody PY99 dilution (antibody diluted 1:500 in T-PBS with BSA 5 mg/mL) was added at 100 μL/well, and shaken for 0.5 hours on a 37° C. shaker. The liquid from the well was discarded, and the plate was washed with T-PBS for three times.
4. The horseradish peroxidase-labeled goat anti-mouse second antibody dilution (antibody diluted 1:2000 in T-PBS with BSA 5 mg/mL) was added at 100 μL/well, and shaken for 0.5 hours on a 37° C. shaker. The liquid from the well was discarded, and the plate was washed with T-PBS for three times.
5. 2 mg/mL OPD coloration solution (diluted with 0.1 M citric acid-sodium citrate buffer containing 0.03% H2O2 (pH=5.4)) was added at 100 μL/well, and reacted for 1-10 minutes at 25° C. in darkness.
6. The reaction was quenched with 50 μL/well of 2M H2SO4, and the plate was read using a tunable microplate microplate reader VERSAmax at 490 nm.
(§1) The IC50 values were obtained by four-parameter regression analysis using the software supplied with the microplate reader.

SNU16 cells = experiment: Inhibition of proliferation of SNU16 cells (CCK-8); assay type: cell-based; conditions: Homo sapiens, SNU-16, 72 h; for inhibition at 0.01 µM: 10 nM; for inhibition at 0.01 µM / inhibition at 0.1 µM / inhibition at 1 µM: 72 h, read-out: Inhibition ratio (%); for inhibition at 0.1 µM: 100 nM; for inhibition at 1 µM: 1000 nM
Description: The inhibitory effect on proliferation of SNU16 cells of a compound was examined by CCK-8 Cell Counting Kit (Dojindo). The steps are as follows: SNUI 6 cells at Logarithmic growth phase were seeded in a 96-well culture plate at appropriate density, 90 ul for each well. After cultured overnight, different concentrations of drugs were added and treated for 72 h, while solvent control well was set (negative control). After 72 h, the influence of the compound on the proliferation of cells was observed by CCK-8 cell counting kit (Dojindo). 10 μL of CCK-8 reagent was added to each well. After incubated for 2-4 hours in a 37° C. incubator, the plate was read with SpectraMax 190 microplate reader at wavelength 450 nm.
as §1

Structure (SMILES) | pIC50 [4] | inhibition at 0.1 µM [4] | inhibition at 0.01 µM (SNU16 cells) | inhibition at 0.1 µM (SNU16 cells) | inhibition at 1 µM (SNU16 cells) | other results
COc1cc(CCc2cc(NC(=O)c3ccc(N4CC(C)NC(C)C4)cc3)n[nH]2)cc(OC)c1 (centres unmarked) [AZD4547, reference compound] |  |  |  |  |  | Body weight (g) d0 ([1]; 10 mg/kg po qd/21, d0): 20.1 g; TV (mm^3, mean ± SD) d0 ([1]; 10 mg/kg po qd/21, d0): 103 ± 18 mm^3; Body weight (g) d21 ([1]; 10 mg/kg po qd/21, d21): 22.4 g; RTV (mean ± SD) ([1]; 10 mg/kg po qd/21, d21): 8.21 ± 3.91; T/C (%) ([1]; 10 mg/kg po qd/21, d21): 59.80%; TV (mm^3, mean ± SD) d21 ([1]; 10 mg/kg po qd/21, d21): 790 ± 247 mm^3
CNC(=O)n1ccc2cc(Oc3ccnc(NC(=O)c4ccc(C5CCN(CCO)CC5)cc4)c3)c(OCCOC)cc21 [Compound E7090, reference compound] |  |  |  |  |  | Relative tumor proliferation rate T/C (%) ([1]; 12.5 mg/Kg): 26%; Relative tumor proliferation rate T/C (%) ([2]; 6.25 mg/Kg): 49%; Relative tumor proliferation rate T/C (%) ([2]; 25 mg/Kg): 17%; Relative tumor proliferation rate T/C (%) ([2]; 50 mg/Kg): 18%; Relative tumor proliferation rate T/C (%) ([3]; 6.25 mg/Kg): 46%; Relative tumor proliferation rate T/C (%) ([3]; 12.5 mg/Kg): 21%; Relative tumor proliferation rate T/C (%) ([3]; 25 mg/Kg): 13%; Relative tumor proliferation rate T/C (%) ([3]; 50 mg/Kg): 8%
CNC(=O)c1cccc2cc(Oc3ccnc(NC(=O)c4ccc(OCCN5CC(F)C5)cc4)c3)ccc12 [Compound S1] | > 7.00 | 72% |  |  |  | 
CNC(=O)c1cccc2cc(Oc3ccnc(NC(=O)c4ccc(OCCN5CC(F)(F)C5)cc4)c3)ccc12 [Compound S2] | > 7.00 | 80% |  |  |  | 
CNC(=O)c1cccc2cc(Oc3ccnc(NC(=O)c4ccc(OCC5(N)CC5)cc4)c3)ccc12 [Compound S3] | > 8.00 | 90% |  |  |  | 
CNC(=O)c1cccc2cc(Oc3ccnc(NC(=O)c4ccc(OCCN5CCCC5)cc4)c3)ccc12 [Compound S4] | > 8.00 | 74% | 55.3% | 61% | 59% | pIC50 (SNU16 cells): 7.53
CNC(=O)c1cccc2cc(Oc3ccnc(NC(=O)c4ccc(N5CCN(C)CC5)cc4)c3)ccc12 [Compound S5] |  | 87% | 60.4% | 60.1% | 57.8% | pIC50 (SNU16 cells): 7.86
CNC(=O)c1cccc2cc(Oc3ccnc(NC(=O)c4ccc(C5CCNCC5)cc4)c3)ccc12 [Compound S6] | > 8.00 | 84% | 45.1% | 63.5% | 59.6% | pIC50 (SNU16 cells): 7.80
CNC(=O)c1cccc2cc(Oc3ccnc(NC(=O)c4ccc(N5CCOCC5)cc4)c3)ccc12 [Compound S7] | > 8.00 | 91% | 30.1% | 53.3% | 60.5% | 
CNC(=O)c1cccc2cc(Oc3ccnc(NC(=O)c4ccc(N5CC(C)OC(C)C5)cc4)c3)ccc12 (centres unmarked) [Compound S8] | > 8.00 | 93% | 23.2% | 36.3% | 48.1% | 
CNC(=O)c1cccc2cc(Oc3ccnc(NC(=O)c4ccc(N5CCNC(C)C5)cc4)c3)ccc12 (centres unmarked) [Compound S9] | > 8.00 | 95% | 70.9% | 73.2% | 73.3% | pIC50 (SNU16 cells): 7.86

Continued, in another order:

pIC50 [4] | inhibition at 0.1 µM [4] | Structure (SMILES) | inhibition at 0.01 µM (SNU16 cells) | inhibition at 0.1 µM (SNU16 cells) | inhibition at 1 µM (SNU16 cells) | other results
> 8.00 | 89% | CNC(=O)c1cccc2cc(Oc3ccnc(NC(=O)c4ccc(N5CCN(CCO)CC5)cc4)c3)ccc12 [Compound S11] |  |  |  | 
> 6.00 | 44% | CNC(=O)c1cccc2cc(Oc3ccnc(NC(=O)c4ccc(CN5CCN(C)CC5)c(C(F)(F)F)c4)c3)ccc12 [Compound S12] |  |  |  | 
< 6.00 | 23% | CNC(=O)c1cccc2cc(Oc3ccnc(NC(=O)c4ccc(N5C[C@@H](C)N[C@@H](C)C5)cc4F)c3)ccc12 [Compound S13] |  |  |  | 
> 6.00 | 40% | CNC(=O)c1cccc2cc(Oc3ccnc(NC(=O)c4ccc(N5C[C@@H](C)N[C@@H](C)C5)cc4OC)c3)ccc12 [Compound S14] |  |  |  | 
> 7.00 | 71% | CNC(=O)c1cccc2cc(Oc3ccnc(NC(=O)c4ccc(N5C[C@@H](C)N[C@@H](C)C5)cc4C)c3)ccc12 [Compound S15] |  |  |  | 
> 7.00 | 58% | CNC(=O)c1cccc2cc(Oc3ccnc(NC(=O)c4cnc(N5C[C@@H](C)N[C@@H](C)C5)nc4)c3)ccc12 [Compound S16] | 26.4% | 55.3% | 61.6% | 
> 7.00 | 59% | CNC(=O)c1cccc2cc(Oc3ccnc(NC(=O)c4csc(N5CCN(C)CC5)n4)c3)ccc12 [Compound S17] |  |  |  | 
> 7.00 | 65% | CNC(=O)c1cccc2cc(Oc3ccnc(NC(=O)c4coc(N5CCN(C)CC5)n4)c3)ccc12 [Compound S18] |  |  |  | 
> 8.00 | 86% | CNC(=O)c1cccc2cc(Oc3ccnc(NC(=O)c4cnn(CCO)c4)c3)ccc12 [Compound S19] |  |  |  | 
> 8.00 | 94% | CNC(=O)c1cccc2cc(Oc3ccnc(NC(=O)c4ccc(N5C[C@@H](C)N[C@@H](C)C5)cc4)n3)ccc12 [Compound S20] |  |  |  | 
> 8.00 | 86% | CNC(=O)c1cccc2cc(Oc3ccnc(NC(=O)c4ccc(NCC5(O)CCOCC5)cc4)c3)ccc12 [Compound S23] |  |  |  | 
> 8.00 | 87% | COC(=O)c1cccc2cc(Oc3ccnc(NC(=O)c4ccc(N5C[C@@H](C)N[C@@H](C)C5)cc4)c3)ccc12 [Compound S24] |  |  |  | 
